Laboratory results as given in ChEMBL document CHEMBL5260828, “Amphiphilic glycoconjugates as potential anti-cancer chemotherapeutics” (Eur J Med Chem, 2018).
Values after ≈ are worked out from the molar mass of the structure shown. Each block holds one compound with its values, some of them ahead of it.

Tests used:
Fatty acid synthase = Fatty acid synthase (Gallus gallus, UniProt P12276); experiment: Inhibition of Fatty acid synthase in chicken liver using [3H]-acetyl CoA as substrate preincubated for 30 mins followed by substrate addition and measured after 10 mins in presence of NADPH by scintillation counting analysis; assay type: tissue-based
Fatty acid synthase, sequence (P12276 whole entry): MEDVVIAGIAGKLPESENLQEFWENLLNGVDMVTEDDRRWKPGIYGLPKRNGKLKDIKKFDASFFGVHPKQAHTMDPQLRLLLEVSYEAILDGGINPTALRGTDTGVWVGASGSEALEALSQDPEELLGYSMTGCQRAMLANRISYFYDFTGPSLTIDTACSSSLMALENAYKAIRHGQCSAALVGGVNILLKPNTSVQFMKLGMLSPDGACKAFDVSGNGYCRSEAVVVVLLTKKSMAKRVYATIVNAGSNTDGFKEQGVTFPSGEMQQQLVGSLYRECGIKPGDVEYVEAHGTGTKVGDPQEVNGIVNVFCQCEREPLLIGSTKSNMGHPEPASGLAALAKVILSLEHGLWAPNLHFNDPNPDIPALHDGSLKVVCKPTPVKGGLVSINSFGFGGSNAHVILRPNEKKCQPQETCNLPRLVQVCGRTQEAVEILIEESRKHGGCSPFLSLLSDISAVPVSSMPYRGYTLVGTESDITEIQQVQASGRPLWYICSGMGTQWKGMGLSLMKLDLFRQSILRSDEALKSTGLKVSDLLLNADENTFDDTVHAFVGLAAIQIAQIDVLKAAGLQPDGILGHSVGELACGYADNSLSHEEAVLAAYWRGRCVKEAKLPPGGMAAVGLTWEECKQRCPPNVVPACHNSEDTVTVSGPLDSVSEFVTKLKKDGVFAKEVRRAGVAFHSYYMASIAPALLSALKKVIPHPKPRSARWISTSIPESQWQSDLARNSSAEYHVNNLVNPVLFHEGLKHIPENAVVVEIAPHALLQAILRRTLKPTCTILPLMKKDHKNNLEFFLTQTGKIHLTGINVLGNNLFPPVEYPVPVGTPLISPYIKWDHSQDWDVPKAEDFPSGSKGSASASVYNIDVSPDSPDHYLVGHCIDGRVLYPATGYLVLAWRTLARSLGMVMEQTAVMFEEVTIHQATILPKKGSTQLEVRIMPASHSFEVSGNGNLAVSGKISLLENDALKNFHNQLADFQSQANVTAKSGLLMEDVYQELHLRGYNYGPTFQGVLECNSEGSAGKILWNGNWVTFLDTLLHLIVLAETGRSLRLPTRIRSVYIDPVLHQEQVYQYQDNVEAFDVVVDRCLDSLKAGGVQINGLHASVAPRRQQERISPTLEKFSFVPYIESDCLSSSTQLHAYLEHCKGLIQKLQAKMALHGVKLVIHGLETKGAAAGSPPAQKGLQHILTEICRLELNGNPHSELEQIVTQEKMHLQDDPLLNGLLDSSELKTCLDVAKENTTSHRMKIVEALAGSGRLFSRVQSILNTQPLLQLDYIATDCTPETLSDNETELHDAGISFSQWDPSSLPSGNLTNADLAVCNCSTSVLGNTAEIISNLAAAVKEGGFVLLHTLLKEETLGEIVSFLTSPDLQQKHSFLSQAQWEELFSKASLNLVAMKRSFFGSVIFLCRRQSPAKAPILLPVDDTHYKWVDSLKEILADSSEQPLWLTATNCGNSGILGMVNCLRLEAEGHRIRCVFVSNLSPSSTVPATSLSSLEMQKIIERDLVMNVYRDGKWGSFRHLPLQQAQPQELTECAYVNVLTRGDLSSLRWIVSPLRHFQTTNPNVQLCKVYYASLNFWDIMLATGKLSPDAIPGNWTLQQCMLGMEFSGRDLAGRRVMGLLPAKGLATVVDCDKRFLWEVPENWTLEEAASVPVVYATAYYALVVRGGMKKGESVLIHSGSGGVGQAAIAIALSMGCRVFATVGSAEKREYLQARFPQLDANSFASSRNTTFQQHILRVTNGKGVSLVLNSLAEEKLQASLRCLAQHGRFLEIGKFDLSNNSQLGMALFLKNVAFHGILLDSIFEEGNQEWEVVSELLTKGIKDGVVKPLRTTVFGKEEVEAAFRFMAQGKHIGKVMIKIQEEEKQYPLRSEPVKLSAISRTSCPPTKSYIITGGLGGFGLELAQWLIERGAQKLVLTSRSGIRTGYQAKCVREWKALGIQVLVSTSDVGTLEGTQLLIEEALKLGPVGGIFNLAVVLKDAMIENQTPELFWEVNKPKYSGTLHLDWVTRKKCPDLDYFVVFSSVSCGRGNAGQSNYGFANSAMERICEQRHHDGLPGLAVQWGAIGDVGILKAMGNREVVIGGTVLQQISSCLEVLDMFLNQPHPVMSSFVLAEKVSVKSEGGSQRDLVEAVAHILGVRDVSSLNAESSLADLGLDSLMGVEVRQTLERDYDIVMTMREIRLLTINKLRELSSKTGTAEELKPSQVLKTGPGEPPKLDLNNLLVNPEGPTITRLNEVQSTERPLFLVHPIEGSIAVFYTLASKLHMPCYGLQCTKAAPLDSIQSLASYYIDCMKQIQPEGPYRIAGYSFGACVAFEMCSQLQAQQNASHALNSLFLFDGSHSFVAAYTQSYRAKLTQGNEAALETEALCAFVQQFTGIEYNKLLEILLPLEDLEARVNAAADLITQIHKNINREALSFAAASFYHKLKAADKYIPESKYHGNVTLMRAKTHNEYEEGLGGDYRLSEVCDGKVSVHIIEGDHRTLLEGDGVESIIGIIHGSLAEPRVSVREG

K562 [1] = experiment: Cytotoxicity against human K562 cells by colorimetric assay; assay type: functional, cell-based
HeLa S3 = experiment: Cytotoxicity against human HeLa S3 cells; assay type: functional, cell-based; conditions: Homo sapiens, HeLa S3; read-out: IC50
K562 [2] = experiment: Cytotoxicity against human K562 cells; assay type: functional, cell-based
A549 [3] = experiment: Cytotoxicity against human A549 cells incubated for 72 hrs by MTT assay; assay type: functional, cell-based; conditions: A549, 72 h
A549 [4] = experiment: Cytotoxicity against human A549 cells incubated for 48 hrs by MTT assay; assay type: functional, cell-based; conditions: A549, 48 h
MCF7 = experiment: Cytotoxicity against human MCF7 cells incubated for 48 hrs by MTT assay; assay type: functional, cell-based; conditions: MCF7, 48 h
SGC-7901 = experiment: Cytotoxicity against human SGC-7901 cells incubated for 48 hrs by MTT assay; assay type: functional, cell-based; conditions: SGC-7901, 48 h
HepG2 = experiment: Cytotoxicity against human HepG2 cells incubated for 48 hrs by MTT assay; assay type: functional, cell-based; conditions: HepG2, 48 h
HeLa = experiment: Cytotoxicity against human HeLa cells incubated for 48 hrs by MTT assay; assay type: functional, cell-based
MIA PaCa-2 = experiment: Cytotoxicity against human MIA PaCa-2 cells assessed as reduction in cell viability incubated for 48 hrs by MTS assay; assay type: functional, cell-based; conditions: MIA PaCa-2, time 48 hrs
DU-145 = experiment: Cytotoxicity against human DU-145 cells assessed as reduction in cell viability incubated for 48 hrs by MTS assay; assay type: functional, cell-based; conditions: DU-145, time 48 hrs
PC-3 = experiment: Cytotoxicity against human PC-3 cells assessed as reduction in cell viability incubated for 48 hrs by MTS assay; assay type: functional, cell-based; conditions: PC-3, time 48 hrs
JIMT-1 = experiment: Cytotoxicity against human JIMT-1 cells assessed as reduction in cell viability incubated for 48 hrs by MTS assay; assay type: functional, cell-based; conditions: JIMT-1, time 48 hrs

IC50 (Fatty acid synthase): 15.6 µM
SMILES: CC/C=C\C/C=C\C/C=C\CCCCCCCC(=O)OC[C@H](CO[C@@H]1O[C@H](CO[C@H]2O[C@H](CO)[C@H](O)[C@H](O)[C@H]2O)[C@H](O)[C@H](O)[C@H]1O)OC(=O)CCCCCCCCCCCCCCCCC

SMILES: CCCCCCCCCCCCCCCCCCOCC(COC(=O)NCCCO[C@@H]1O[C@H](CO)[C@H](O)[C@H](O)[C@H]1O)OCC (some centres not stated)
IC50 (K562 [1]): 17 µM

SMILES: CO[C@@H]1[C@@H](OC(N)=O)[C@@H](OC)[C@H](O[C@@H]2C[C@H]3O[C@@](O)(C2)[C@H](C)C(=O)O[C@@H](/C=C/C=C/Br)C/C(C)=C/C(=O)C3(C)C)O[C@H]1C
IC50 (HeLa S3): 1.2 µg/mL (≈ 1.78 µM)

IC50 (Fatty acid synthase): 15.6 µM
SMILES: CC/C=C\C/C=C\C/C=C\CCCCCCCC(=O)OC[C@H](CO[C@@H]1O[C@H](CO[C@H]2O[C@H](CO)[C@H](O)[C@H](O)[C@H]2O)[C@H](O)[C@H](O)[C@H]1O)OC(=O)CCCCCCCCCCCCCCCCCCC

SMILES: CC(=O)OC[C@H]1O[C@@H](Oc2cc(C)c(O)cc2C/C=C(\C)CC/C=C(\C)C[C@H](C=C(C)C)OC(C)=O)[C@H](O)[C@@H](OC(C)=O)[C@H]1OC(C)=O
IC50 (K562 [2]): 3.1 µg/mL (≈ 4.59 µM)

IC50 (Fatty acid synthase): 15.6 µM
SMILES: CC/C=C\C/C=C\C/C=C\CCCCCCCC(=O)O[C@H](COC(=O)CCCCCCCCCCCCCCC)CO[C@@H]1O[C@H](CO[C@H]2O[C@H](CO)[C@H](O)[C@H](O)[C@H]2O)[C@H](O)[C@H](O)[C@H]1O

SMILES: CCCCCCCCCCCCC(=O)OCc1cn(C[C@H]2O[C@H](OC)[C@H](O)[C@@H](O)[C@@H]2O)nn1
IC50 (A549 [3]): 21 µM

SMILES: CCCCCCCCCCCCCCCCCCOCC(CO[C@@H]1O[C@H](CO)[C@H](O)[C@H](O)[C@H]1O)OCC (some centres not stated)
IC50 (K562 [1]): 2.5 µM

IC50 (Fatty acid synthase): 15.6 µM
SMILES: CCCCCCCCCCCCCCCCCCCC(=O)O[C@H](COC(=O)CCCCCCCCCCCCCCC)CO[C@@H]1O[C@H](CO[C@H]2O[C@H](CO)[C@H](O)[C@H](O)[C@H]2O)[C@H](O)[C@H](O)[C@H]1O

SMILES: CCCCCCCCCCCCC(=O)OCc1cn(C[C@H]2O[C@H](OC)[C@H](O)[C@@H](O)[C@H]2O)nn1
IC50 (A549 [3]): 21 µM

SMILES: CO[C@@H]1[C@@H](O)[C@@H](OC)[C@H](O[C@@H]2[C@@H](OC)[C@H](C)O[C@@H](O[C@@H]3C[C@H]4O[C@@](O)(C3)[C@H](C)C(=O)O[C@@H](/C=C/C=C/Br)C/C(C)=C/C(=O)C4(C)C)[C@@H]2OC)O[C@H]1C
IC50 (HeLa S3): 0.17 µg/mL (≈ 0.211 µM)

SMILES: CCCCCCCCCCCCCC(=O)OCc1cn(C[C@H]2O[C@H](OC)[C@H](O)[C@@H](O)[C@H]2O)nn1
IC50 (A549 [3]): 21 µM

SMILES: CCCCCCCCCCCCCCCCCCOCC(COC(=O)NCCCO[C@@H]1O[C@H](CO)[C@@H](O[C@@H]2O[C@H](CO)[C@H](O)[C@H](O)[C@H]2O)[C@H](O)[C@H]1O)OCC (some centres not stated)
IC50 (K562 [1]): 7 µM

SMILES: CCCCC[C@@H]1CCCCCCCCCC(=O)O[C@H]2[C@@H](O)[C@H](O[C@H]3[C@H](O1)O[C@H](CO)[C@@H](O)[C@@H]3O)O[C@@H](C)[C@@H]2O[C@@H]1O[C@@H](C)[C@H](O[C@@H]2O[C@@H](C)[C@H](OC(=O)[C@@H](C)CC)[C@@H](OC(=O)/C=C/c3ccccc3)[C@H]2O)[C@@H](O[C@@H]2O[C@@H](C)[C@H](O)[C@@H](O)[C@H]2O)[C@H]1OC(=O)[C@@H](C)CC
IC50 (A549 [4]): 4.28 µM | IC50 (MCF7): 4.28 µM | IC50 (SGC-7901): 4.28 µM | IC50 (HepG2): 4.28 µM | IC50 (HeLa): 4.28 µM

SMILES: CCCCCCCCCCCCCCCCOC[C@H](CN)O[C@@H]1O[C@@H](C)[C@H](O)[C@@H](O)[C@H]1O
CC50 (MIA PaCa-2): 8.5 µM | CC50 (DU-145): 8.2 µM | CC50 (PC-3): 11 µM | CC50 (JIMT-1): 5.5 µM
